This assay addresses Nucleotide-binding oligomerization domain-containing protein 2 (Homo sapiens, UniProt Q9HC29). Nature of the assay: NOD2 inhibitors, SAR follow-up, set 2 (AID 2475).

Chain of Nucleotide-binding oligomerization domain-containing protein 2 (Q9HC29 whole entry, the tested form may be a part): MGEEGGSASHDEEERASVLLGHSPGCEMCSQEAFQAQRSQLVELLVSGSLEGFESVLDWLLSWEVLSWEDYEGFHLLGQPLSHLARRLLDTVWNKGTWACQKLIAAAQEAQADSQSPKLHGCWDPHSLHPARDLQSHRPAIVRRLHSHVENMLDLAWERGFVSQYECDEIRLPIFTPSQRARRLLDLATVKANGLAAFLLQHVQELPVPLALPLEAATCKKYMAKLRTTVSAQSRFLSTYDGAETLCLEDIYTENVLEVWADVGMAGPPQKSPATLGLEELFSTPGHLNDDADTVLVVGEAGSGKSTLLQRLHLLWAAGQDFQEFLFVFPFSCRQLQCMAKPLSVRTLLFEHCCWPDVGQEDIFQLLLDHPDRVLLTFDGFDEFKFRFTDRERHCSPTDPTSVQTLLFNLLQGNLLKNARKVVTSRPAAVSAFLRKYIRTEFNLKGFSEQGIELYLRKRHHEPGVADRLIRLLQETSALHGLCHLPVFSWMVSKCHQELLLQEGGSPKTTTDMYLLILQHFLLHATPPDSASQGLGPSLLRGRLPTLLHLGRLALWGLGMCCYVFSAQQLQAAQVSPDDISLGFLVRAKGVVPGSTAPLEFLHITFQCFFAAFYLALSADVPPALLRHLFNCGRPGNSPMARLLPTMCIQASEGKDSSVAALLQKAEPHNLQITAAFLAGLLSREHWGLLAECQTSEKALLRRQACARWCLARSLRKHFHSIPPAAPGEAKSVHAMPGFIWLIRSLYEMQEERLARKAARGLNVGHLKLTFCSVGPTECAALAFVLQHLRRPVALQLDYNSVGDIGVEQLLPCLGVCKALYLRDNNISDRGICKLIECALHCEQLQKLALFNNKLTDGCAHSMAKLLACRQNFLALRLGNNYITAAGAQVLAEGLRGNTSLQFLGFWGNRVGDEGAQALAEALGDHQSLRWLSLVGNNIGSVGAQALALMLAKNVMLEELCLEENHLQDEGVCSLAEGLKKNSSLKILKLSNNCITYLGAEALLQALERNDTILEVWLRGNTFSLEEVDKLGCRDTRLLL

As a reminder, the IC50 is the concentration needed to halve the response being measured. A higher IC50 goes with weaker potency in that assay. Take `Cc1cc(SCC(=O)OCC(=O)C(C#N)c2nc3ccccc3[nH]2)c(C)cc1Br` (configuration not stated): the IC50 worked out at 5.19 µM.
For `Cc1ccc(C)c(SCC(=O)OCC(=O)C(C#N)c2nc3ccccc3[nH]2)c1` (configuration not stated) [MLS000392255], the concentration for half-maximal inhibition (IC50) is 4.21 µM.

The record behind these values is BindingDB's records for doi:10.7270/Q2JW8CBM (Burnham Center For Chemical Genomics, 2010).
